According to article PMC11948302, “OATP1B-type Transport Function Is a Determinant of Aromatase Inhibitor–Associated Arthralgia Susceptibility” (Cancer Research Communications, 2025):
Marks after values point to notes of the source that are not given here. Values belong to the compound of their own block, whether it stands above or below them.

Legend:
[1] = In vivo pharmacokinetic studies in mice (plasma and liver, LC/MS-MS); settings: for AUC fold change vs. WT: 95% confidence interval; for AUC(0-t) / Cmax: female, FVB, mouse, plasma, po; for liver levels, wild-type vs Oatp1a/1b^(−/−) mice / liver concentrations in OATP1B1^(tg) or OATP1B3^(tg) mice: single oral dose, letrozole 10 mg/kg or exemestane 20 mg/kg; for liver concentrations in OATP1B1^(tg) or OATP1B3^(tg) mice: relative to Oatp1a/1b^(−/−) and wild-type
Experimental: The analysis was conducted using a Vanquish UHPLC aligned with a Quantiva triple-stage quadrupole mass spectrometer (Thermo Fisher Scientific). An ACQUITY UPLC BEH C18 Column (130 Å, 1.7 μm, 2.1 mm × 50 mm, Waters Co.) protected by ACQUITY UPLC BEH Shield RP18 VanGuard Pre-column (130 Å, 1.7 μm, 2.1 mm × 5 mm, Waters Co.) was used for analyte separation. The injection volume of the sample was 10 μL. The temperature of the column was kept at 40°C, whereas the autosampler rack was kept at 4°C. The mobile phase consisted of solvent A, which was a solution of 0.1% acetic acid in LC/MS-grade water, and solvent B, which was a solution of 0.1% formic acid in acetonitrile. The total run time was 4.5 minutes. The following were the gradient conditions: 0.3 mL/minutes was the flow rate for the following intervals: 0 to 0.5 minutes, 30% B; 0.5 to 3.0 minutes, 30% to 95% B; 3.0 to 4.0 minutes, 95% B; and 4.001 to 4.5 minutes, 95% to 30% B. The vaporizer was adjusted to 360°C, and the ion transfer tube temperature was 340°C. The mass spectrometry assay was configured with a positive voltage of 3600 V delivered to the ESI capillary. The collision gas utilized was argon, with a pressure of 1.5 mTorr. The mass spectrometer was set up with the following optimized parameters: 1 arbitrary unit (Arb) for sweep gas, 5 Arb for auxiliary gas, and 25 Arb for sheath gas. […] The accuracy, expressed as a percent bias varied from −7.80% to 5.10%, whereas the inter-assay and intra-assay precisions ranged from 2.19% to 7.09% according to the results of assay validation tests. The lower limit of quantification was 0.4 ng/mL.
Letrozole was quantified using an LC/MS-MS method described previously ([14]). A Vanquish UHPLC and Quantiva triple-stage quadrupole mass spectrometer (Thermo Fisher Scientific) were used in the analysis. Analytes were separated chromatographically using a C18 AQUASIL guard cartridge (2.1 mm × 10 mm, 3 μm; Thermo Fisher Scientific) and an Accucore aQ column (50 mm × 2.1 mm, 2.6 μm). The temperature of the column was set at 40°C, whereas the autosampler was kept at 4°C. The mobile phase consisted of solvent A, which was a solution of 0.1% acetic acid in LC/MS-grade water, and solvent B, which was a solution of 0.1% formic acid in acetonitrile. A gradient elution method was employed for 5.0 minutes, with a flow rate of 0.4 mL/minutes. […] Injections were performed using 3 μL of the extracted samples. The mass spectrometer parameters were optimized and configured as follows: 25 Arb for sheath gas, 5 Arb for auxiliary gas, and 1 Arb for sweep gas. The temperature of the ion transfer tube and vaporizer was adjusted to 340°C and 360°C, respectively. Argon was used as the collision gas at a pressure of 1.5 mTorr. […] The lower limit of quantification was 5 ng/mL.
Female wild-type, Oatp1a/1b cluster-knockout mice [Oatp1a/1b^(−/−) mice] and Oatp1a/1b^(−/−) mice with transgenic hepatic expression of OATP1B1 [OATP1B1^(tg) mice] or OATP1B3 [OATP1B3^(tg) mice] were all on an FVB background (RRID: IMSR_T000141), and experimental groups were age- and weight-matched for each experiment. Female mice with a deficiency of all Cyp3a isoforms [Cyp3a^(−/−)] were similarly matched with FVB wild-type mice. All mice were bred in-house. Littermates of the same sex and genotype were housed in groups of maximally five animals in a temperature- and light-controlled environment (12-hour light/dark cycles) in cages lined with absorbent bedding. Mice were given free access to standard food and water.
For in vivo pharmacokinetic studies, mice were randomized into experimental groups of equal size.

[2] = tested on: patients; settings: randomized phase III, cited from earlier work
[3] = set-up: method as in earlier work; settings: patients receiving continuous dosing regimens, prescribing information; cited from earlier work
[4] = tested on: Oatp1b2; assay: CDCA-24G plasma biomarker of hepatic Oatp1b2 function in mice; format: in vivo; settings: single oral letrozole 10 mg/kg, 2 hours
Experimental: A, The levels of CDCA-24G biomarker in plasma were measured via LC/MS-MS in wild-type and Cyp3a^(−/−) mice treated with a single oral administration of letrozole (10 mg/kg) or vehicle. […] Data are shown as mean ± SD. Two-sided, unpaired Student t tests were used to analyze the data and no multiple comparison adjustment was applied. **, P < 0.01 and ****, P < 0.0001 compared with the wild-type group; n = 9 to 10 per group.

[5] = tested on: mice; assay: Photobeam activity open field system (physical activity); format: in vivo
Experimental: An open-field photobeam activity system was used to monitor the motor activity of mice over a period of 12 hours after administration of letrozole ([27], [28]). Spontaneous physical/locomotor activity was assessed using an activity monitoring system consisting of a two-dimensional (X and Y axes) square frame that emits a grid of infrared beams (IR Actimeter and Actitrack software, Panlab, Harvard Apparatus). Animals were placed in a transparent enclosure inside the frame, and movement within the enclosure (general locomotor activity) was recorded as interruptions in the beams. During acute studies, mice were dosed with letrozole (0.5 mg/kg) orally at 5:00 pm and were tested individually for 12 hours during the active/dark phase of the light cycle (6:00 pm–6:00 am). Physical activity of the mice was similarly monitored at baseline and at the end of 15 days of the chronic treatment.

[6] = tested on: mice; assay: Von Frey hair test (mechanical sensitivity); format: in vivo
Experimental: Von Frey filaments were used as a mechanical sensitivity measurement following administration of letrozole in both chronic and acute treatments, using a strategy developed previously ([24]). After ensuring that the animal is acquainted with the environment, joint pain was directly evaluated by a hind limb withdrawal response to mechanical stimulation applied by the filaments. […] After a single dose, mechanical sensitivity was tested with the Von Frey filaments at 0, 1, 3, 6, and 24 hours after drug administration ([25], [26]). During the chronic treatment of letrozole (0.1 mg/kg/day for 15 days), mechanical sensitivity was measured at baseline, at the end of week 1, and the end of week 2. Analysts were blinded to the composition of the treatment groups.

[7] = tested on: mice; assay: Histopathology of knee joints after chronic letrozole; format: in vivo; settings: mice receiving multiple doses of letrozole (0.1 mg/kg/day, 15 days)
Experimental: At the end of the chronic letrozole treatment, hind limbs of three randomly selected mice per group were collected, peeled for skin, and preserved in 10% neutral buffered formaline at room temperature for at least 48 hours until tissue processing. Tissues from the hind limbs were routinely processed for histopathology on a Leica Peloris 3 Tissue Processor (Leica Biosystems), embedded in paraffin, sectioned at an approximate thickness of 4 to 5 μm, and batch stained with hematoxylin and eosin on a Leica ST5020 autostainer using a routine and quality-controlled protocol. Slides were evaluated and representative photomicrographs were taken by a board-certified veterinary pathologist using a Nikon Eclipse Ci-L Upright Microscope (Nikon Instruments, Inc.) with attached 18 megapixel Olympus SC180 microscope-mounted digital camera and cellSens imaging software (Olympus Life Science).

[8] = OATP1B1^(tg) mice, chronic letrozole 0.1 mg/kg/day for 15 days, 12 hours
[9] = OATP1B1^(tg) mice, single oral letrozole 0.5 mg/kg, 12 hours
[10] = OATP1B3^(tg) mice, chronic letrozole 0.1 mg/kg/day for 15 days, 12 hours
[11] = OATP1B3^(tg) mice, single oral letrozole 0.5 mg/kg, 12 hours
[12] = Oatp1a/1b^(−/−) mice, chronic letrozole 0.1 mg/kg/day for 15 days, 12 hours
[13] = Oatp1a/1b^(−/−) mice, single oral letrozole 0.5 mg/kg, 12 hours
[14] = wild-type mice, chronic letrozole 0.1 mg/kg/day for 15 days, 12 hours
[15] = wild-type mice, letrozole 0.5 mg/kg, 12 h, Table S4
[16] = wild-type mice, single oral letrozole 0.5 mg/kg, 12 hours
[17] = wild-type mice, single oral letrozole 0.5 mg/kg, 12 hours, listed as letrozole
[18] = 2.5 mg daily for 5 years vs intermittent regimen

AUC fold change vs. WT ([1]; OATP1B3^(tg) vs wild-type mice, exemestane 20 mg/kg oral): 2.27 (1.49–3.44) | AUC fold change vs. WT ([1]; Oatp1a/1b^(−/−) vs wild-type mice, exemestane 20 mg/kg oral): 2.25 (1.60–3.18) | AUC(0-t) ([1]; 20 mg/kg, AUC0–6h, OATP1B3^(tg) female mice, exemestane 20 mg/kg oral, mean with SEM): 294 ng·h/mL | AUC(0-t) ([1]; 20 mg/kg, AUC0–6h, Oatp1a/1b^(−/−) female mice, exemestane 20 mg/kg oral, mean with SEM): 292 ng·h/mL | AUC(0-t) ([1]; 20 mg/kg, AUC0–6h, wild-type female mice, exemestane 20 mg/kg oral, mean with SEM): 130 ng·h/mL | Cmax ([1]; 20 mg/kg, OATP1B3^(tg) female mice, exemestane 20 mg/kg oral, mean with SEM): 152 ng/mL | Cmax ([1]; 20 mg/kg, Oatp1a/1b^(−/−) female mice, exemestane 20 mg/kg oral, mean with SEM): 159 ng/mL | Cmax ([1]; 20 mg/kg, wild-type female mice, exemestane 20 mg/kg oral, mean with SEM): 94 ng/mL | liver levels, wild-type vs Oatp1a/1b^(−/−) mice [1]: higher levels | liver concentrations in OATP1B1^(tg) or OATP1B3^(tg) mice [1]: partially restored
SMILES: C=C1C[C@@H]2[C@H](CC[C@]3(C)C(=O)CC[C@@H]23)[C@@]2(C)C=CC(=O)C=C12 [Exemestane]
suppression of estrogen levels and reduction of breast cancer tissue proliferation, intermittent vs standard daily dosing ([2]; 25 mg three times a week vs 25 mg daily): non-inferior

AUC fold change vs. WT ([1]; Cyp3a^(−/−) vs wild-type mice, letrozole 10 mg/kg oral): 1.59 (1.34–1.90) | AUC fold change vs. WT ([1]; OATP1B1^(tg) vs wild-type mice, letrozole 10 mg/kg oral): 1.29 (0.94–1.78) | AUC fold change vs. WT ([1]; OATP1B3^(tg) vs wild-type mice, letrozole 10 mg/kg oral): 1.27 (0.83–1.95) | AUC fold change vs. WT ([1]; Oatp1a/1b^(−/−) vs wild-type mice, letrozole 10 mg/kg oral): 1.3 (0.92–1.86) | AUC(0-t) ([1]; 10 mg/kg, AUC0–6h, OATP1B1^(tg) female mice, letrozole 10 mg/kg oral, mean with SEM): 33000 ng·h/mL | AUC(0-t) ([1]; 10 mg/kg, AUC0–6h, OATP1B3^(tg) female mice, letrozole 10 mg/kg oral, mean with SEM): 32400 ng·h/mL | AUC(0-t) ([1]; 10 mg/kg, AUC0–6h, Oatp1a/1b^(−/−) female mice, letrozole 10 mg/kg oral, mean with SEM): 33300 ng·h/mL | AUC(0-t) ([1]; 10 mg/kg, AUC0–6h, wild-type female mice, letrozole 10 mg/kg oral, mean with SEM): 25500 ng·h/mL | AUC(0-t) ([1]; 10 mg/kg, AUC0–24h, Cyp3a^(−/−) female mice, letrozole 10 mg/kg oral single dose, mean ± SEM): 141000 ng·h/mL | AUC(0-t) ([1]; 10 mg/kg, AUC0–24h, wild-type female mice, letrozole 10 mg/kg oral single dose, mean ± SEM): 88700 ng·h/mL | Cmax ([1]; 10 mg/kg, Cyp3a^(−/−) female mice, letrozole 10 mg/kg oral single dose, mean ± SEM): 6820 ng/mL | Cmax ([1]; 10 mg/kg, OATP1B1^(tg) female mice, letrozole 10 mg/kg oral, mean with SEM): 6550 ng/mL | Cmax ([1]; 10 mg/kg, OATP1B3^(tg) female mice, letrozole 10 mg/kg oral, mean with SEM): 6670 ng/mL | Cmax ([1]; 10 mg/kg, Oatp1a/1b^(−/−) female mice, letrozole 10 mg/kg oral, mean with SEM): 6750 ng/mL | Cmax ([1]; 10 mg/kg, wild-type female mice, letrozole 10 mg/kg oral single dose, Table 1 study, mean ± SEM): 5800 ng/mL | Cmax ([1]; 10 mg/kg, wild-type female mice, letrozole 10 mg/kg oral, Table 2 study, mean with SEM): 5180 ng/mL | liver levels, wild-type vs Oatp1a/1b^(−/−) mice [1]: higher levels | liver concentrations in OATP1B1^(tg) or OATP1B3^(tg) mice [1]: partially restored | Activ. (global activity) [5, 8]: 28,800 | Dist. (total distance traveled) [5, 8]: 380 m | Locom. (locomotion) [5, 8]: 25,909 | MF (%) (moving fast) [5, 8]: 6.22% | MS (%) (moving slow) [5, 8]: 11.58% | RT (%) (resting time % of total duration) [5, 8]: 82.19% | Res.T. (resting time) [5, 8]: 9.86 h | Stere. (stereotypes) [5, 8]: 2,892 | Activ. (global activity) [5, 9]: 31,678 | Dist. (total distance traveled) [5, 9]: 377 m | Locom. (locomotion) [5, 9]: 28,964 | MF (%) (moving fast) [5, 9]: 6.60% | MS (%) (moving slow) [5, 9]: 11.08% | RT (%) (resting time % of total duration) [5, 9]: 82.34% | Res.T. (resting time) [5, 9]: 9.88 h | Stere. (stereotypes) [5, 9]: 2,713 | Activ. (global activity) [5, 10]: 29,841 | Dist. (total distance traveled) [5, 10]: 373 m | Locom. (locomotion) [5, 10]: 27,036 | MF (%) (moving fast) [5, 10]: 6.28% | MS (%) (moving slow) [5, 10]: 12.01% | RT (%) (resting time % of total duration) [5, 10]: 81.71% | Res.T. (resting time) [5, 10]: 9.80 h | Stere. (stereotypes) [5, 10]: 2,804 | Activ. (global activity) [5, 11]: 27,095 | Dist. (total distance traveled) [5, 11]: 340 m | Locom. (locomotion) [5, 11]: 24,448 | MF (%) (moving fast) [5, 11]: 5.72% | MS (%) (moving slow) [5, 11]: 11.06% | RT (%) (resting time % of total duration) [5, 11]: 83.22% | Res.T. (resting time) [5, 11]: 9.98 h | Stere. (stereotypes) [5, 11]: 2,647 | Activ. (global activity) [5, 12]: 26,637 | Dist. (total distance traveled) [5, 12]: 316 m | Locom. (locomotion) [5, 12]: 24,065 | MF (%) (moving fast) [5, 12]: 5.23% | MS (%) (moving slow) [5, 12]: 11.23* % | RT (%) (resting time % of total duration) [5, 12]: 83.55* % | Res.T. (resting time) [5, 12]: 10.0* hours | Stere. (stereotypes) [5, 12]: 2,572 | Activ. (global activity) [5, 13]: 26,674 | Dist. (total distance traveled) [5, 13]: 286 m | Locom. (locomotion) [5, 13]: 24,494 | MF (%) (moving fast) [5, 13]: 4.64% | MS (%) (moving slow) [5, 13]: 10.40% | RT (%) (resting time % of total duration) [5, 13]: 84.96% | Res.T. (resting time) [5, 13]: 10.2 h | Stere. (stereotypes) [5, 13]: 2,180* | Activ. (global activity) [5, 14]: 30,580 | Dist. (total distance traveled) [5, 14]: 383 m | Locom. (locomotion) [5, 14]: 27,528 | MF (%) (moving fast) [5, 14]: 6.32% | MS (%) (moving slow) [5, 14]: 13.30% | RT (%) (resting time % of total duration) [5, 14]: 80.34% | Res.T. (resting time) [5, 14]: 9.64 h | Stere. (stereotypes) [5, 14]: 3,052 | Dist. (total distance traveled) [5, 15]: 512 m | Res.T. (resting time) [5, 15]: 9.06 h | Activ. (global activity) [5, 16]: 41163 | Dist. (total distance traveled) [5, 16]: 512 m | Locom. (locomotion) [5, 16]: 37261 | MF (%) (moving fast) [5, 16]: 8.90% | MS (%) (moving slow) [5, 16]: 15.53% | RT (%) (resting time % of total duration) [5, 16]: 75.55% | Res.T. (resting time) [5, 16]: 9.06 h | Stere. (stereotypes) [5, 16]: 3902 | Activ. (global activity) [5, 17]: 41,163 | Locom. (locomotion) [5, 17]: 37,261 | Stere. (stereotypes) [5, 17]: 3,902 | time of maximal mechanical sensitivity after drug administration ([6]; wild-type mice, single dose of letrozole): 6 h
SMILES: N#Cc1ccc(C(c2ccc(C#N)cc2)n2cncn2)cc1 [Letrozole]
accumulation in plasma [3]: does not substantially accumulate | increase of CDCA-24G concentration in plasma vs vehicle control ([4]; Cyp3a^(−/−) mice): 2.17 fold | increase of CDCA-24G concentration in plasma vs vehicle control ([4]; wild-type mice): 1.62 fold | arthralgia-related changes in mechanical sensitivity ([6]; Oatp1a/1b^(−/−) mice vs humanized transgenic and wild-type mice, letrozole 0.1 mg/kg daily for 15 days): worst arthralgia-related phenotypic changes in mechanical sensitivity | mechanical allodynia (paw withdrawal threshold) ([6]; wild-type mice, single dose of letrozole 0.1-0.5 mg/kg): reversible, concentration- and time-dependent allodynia | lesions in knee joints (histopathologic examination) [7]: synovial hyperplasia, synovitis, and patellar tendinitis | 7-year disease-free survival, intermittent vs continuous [2, 18]: comparable | incidence of arthralgia, intermittent vs continuous dosing [2, 18]: only slightly decreased
